Assay results taken from paper PMC7300217, “Surfactin Like Broad Spectrum Antimicrobial Lipopeptide Co-produced With Sublancin From Bacillus subtilis Strain A52: Dual Reservoir of Bioactives” (Frontiers in Microbiology, 2020).

Assays:
S. aureus MTCC 1430 [1] = assay: MIC, microtiter plate dilution assay; format: cell-based, Staphylococcus aureus; settings: 5 × 10^5 CFU/ml, 37°C, OD600 after 24 h, triplicate
Protocol: The antimicrobial activity was tested by well diffusion assay as mentioned earlier ([Singh et al., 2014]). Strain A52 was grown for 24 h in 500 ml of nutrient broth (NB, Hi-media, India) using 1000 ml flask and subsequently cells were removed by centrifugation (10,000 rpm for 15 min at 4°C). Supernatant was filtered through 0.22 μm filter (Millipore, United States) to obtain cell-free fermented broth (CFB) that was used for antimicrobial assay (50 μl) against various indicator strains and the activity was measured as diameter of inhibition zone. […]
The minimum inhibitory concentration (MIC) of HPLC purified peptides was evaluated by using microtiter plate dilution assay. […] OD was measured at 600 nm after 24 and 48 h for bacteria and yeast, respectively, using ELISA microplate reader (Thermo, United States). MIC against phytopathogenic fungi was determined using 96-well microtiter plate assay ([Kaur et al., 2016]). […] The microplates were incubated at 25°C and readings were recorded at 600 nm after 48 h. […]

[2] = Temperature sensitivity, residual antimicrobial activity; format: physicochemical; settings: residual antimicrobial activity by well diffusion assay at RT; for Residual activity (%), temperature 100 ºC: 100 °C
Protocol: (§1) Sensitivity of purified peptides toward temperature, pH, and non-specific proteases was confirmed by performing bioassays. The pH stability was determined by adjusting the pH 2.0–12.0 of peptide aliquots (using 10 mM HCl or NaOH) and incubating for 4 h at room temperature. Samples were neutralized to pH 7.0 before processing for antimicrobial assay. To determine temperature susceptibility, peptides were incubated at different temperatures ranging from 37 to 100°C for 1 h and 121°C for 15 min and residual antimicrobial activity was determined at RT by well diffusion assay. Proteolytic enzymes trypsin and proteinase K (Sigma, United States) were used at three different concentrations (0.1, 1.0, and 5.0 mg/ml) to observe their effect on the peptide. The enzyme solutions were prepared in 50 mM phosphate buffer (pH 7.0). All reactions were performed at 37°C for 6 h followed by deactivation of enzyme by heating the solution in boiling water for 5 min before performing the activity assay.

proteinase K = biological target: T1, proteinase K (Parengyodontium album, UniProt P06873); assay: Sensitivity to proteolytic enzyme, residual antimicrobial activity; format: in vitro ADME; settings: 6h/ 37°C, enzyme 0.1, 1.0 and 5.0 mg/ml in 50 mM phosphate buffer pH 7.0, enzyme deactivated in boiling water 5 min
T1 construct: purchased Sigma, United States
T1 sequence (P06873 106-384): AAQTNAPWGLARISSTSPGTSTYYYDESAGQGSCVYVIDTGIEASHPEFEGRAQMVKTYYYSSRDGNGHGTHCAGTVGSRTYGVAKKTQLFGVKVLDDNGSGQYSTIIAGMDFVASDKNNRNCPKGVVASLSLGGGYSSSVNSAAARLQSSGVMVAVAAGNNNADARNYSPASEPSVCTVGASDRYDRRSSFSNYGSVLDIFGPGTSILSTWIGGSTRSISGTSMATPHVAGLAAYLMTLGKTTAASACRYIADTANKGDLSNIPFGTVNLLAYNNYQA
Protocol: as §1

[3] = test system: A. brassicicola MTCC 2102 spores; assay: Effect on fungal spores, phase contrast microscopy; format: cell-based, Alternaria brassicicola
Protocol: The effect of peptide on cell membrane was determined by scanning electron microscopy (SEM) and transmission electron microscopy (TEM) after treatment with AMPs. For this, test strains S. aureus MTCC 1430 and C. albicans MTCC 183 were cultured to mid-log phase in respective media. The cells were harvested by centrifugation at 10,000 × g for 10 min, washed thrice with 1X PBS, and re-suspended to adjust an OD600 of 0.2. […] Following the incubation, cells were processed for SEM and TEM as described ([Raje et al., 2006]). The specimens were completely dried using freeze drier, coated with gold, and visualized under a scanning electron microscope (ZEISS, Germany). For TEM (JEOL, JEM 2100, United States), cells were treated with peptide, washed, and subjected to negative stain 0.1% sodium phosphotungstate (Sigma, United States) for visualization. Effect of A52 lipopeptide on fungal spore was observed through a phase contrast microscope (Nickon H600L, Japan).

S. aureus MTCC 1430 [4] = assay: TLC overlay bioautography; format: cell-based, Staphylococcus aureus; settings: ∼10^6 cells/ml, 24 h at 37°C
Protocol: Purified antimicrobial peptides were analyzed on TLC plates (Silica gel 60 F254, Merck, Germany) and used to determine the purity and antimicrobial activity of the compound by bioautographic assay ([Zheng et al., 2005]). About 50–60 μl of the peptide solution (100 μg/ml concentration) was loaded onto individual TLC silica gel plates in duplicates and were developed using a solvent system containing chloroform: […]: water (65:12:4 v/v). Subsequently, each TLC plate was dried, cut into two vertical parts, and one part of the TLC was used for direct detection of antimicrobial activity by overlaying on NA plate containing indicator strain (S. aureus MTCC 1430, ∼10^6 cells/ml). After allowing for 1 h of diffusion at 4°C, the TLC strip was removed and plates were incubated for 24 h at 37°C. The other part of TLC strip (5–10 μl of the peptide solution spot) was sprayed with ninhydrin and phosphomolybdic acid as a staining reagent to detect the presence of peptides and lipid moieties, respectively. Similarly, peptides were electrophoresed on 16% Tricine-SDS-PAGE and used for in-gel activity assay as described earlier ([Baindara et al., 2016]). S. aureus MTCC 1430 (∼10^6 cells/ml) was used as an indicator strain in assay.

Substance: Glu^1-Leu/Ile^2-Leu^3-Val^4-Asp^5-Leu^6-Leu/Ile^7 and a β-OH hexadecane fatty acid chain (lariat or depsi) [Lipopeptide A52, cyclic surfactin-like lipopeptide, 7 amino acids and C16 β-hydroxy fatty acid, 1061.9 Da, from B. subtilis strain A52]
- MIC value, S. aureus MTCC 1430 (S. aureus MTCC 1430 [1]): 4 µg/mL
- Residual activity (%), temperature 37 ºC ([2]; 37 °C, 1h): 100%
- Residual activity (%), temperature 50 ºC ([2]; 50 °C, 1h): 100%
- Residual activity (%), temperature 60 ºC ([2]; 60 °C, 1h): 100%
- Residual activity (%), temperature 70 ºC ([2]; 70 °C, 1h): 100%
- Residual activity (%), temperature 80 ºC ([2]; 80 °C, 1h): 100%
- Residual activity (%), temperature 100 ºC ([2]; 1h, listed as Lipopeptide): 100%
- Residual activity (%), temperature 100 ºC ([2]; 1h, listed as surfactin-like lipopeptide): not affected
- Residual activity (%), temperature 121 ºC (autoclaving) ([2]; 121 °C, 15 min (15 lbs)): 89.0%
- Residual activity (%), Proteinase k (proteinase K): 100%
- lysis of fungal spores [3]: able to lyse the spores
- inhibition in TLC based overlay bioautographic assay (S. aureus MTCC 1430 [4]): inhibited
